Series [1] deals with L6. As to the kind of experiment: Inhibition of mitochondrial respiratory complex 1 in differentiated Sprague-Dawley rat L6 myotube cells assessed as mitochondrial membrane potential at 5 uM after 40 to 60 mins by JC-1 staining based fluorescence assay (reference value: 100 +/- 1.6%). Further details: scale not given: the % may be the effect or the level left. The format is cell-based.

For series [2], the species on record is Rattus norvegicus. As to the kind of experiment: Activation of AMPK in Sprague-Dawley rat primary hepatocytes assessed as inhibition of gluconeogenesis by measuring glucose production at 20 uM after 6 hrs by colorimetric assay (reference value: 100 +/- 3.5%). Further details: scale not given: the % may be the effect or the level left.
Series [3] relates to L6. As to the kind of experiment: Activation of AMPK in differentiated Sprague-Dawley rat L6 myotube cells assessed as glucose consumption at 5 uM after 12 hrs by colorimetric assay (reference value: 100 +/- 1.8%). It is filed as cell-based.
Series [4] has as its system L6. Description: Inhibition of mitochondrial respiratory complex 1 in differentiated Sprague-Dawley rat L6 myotube cells assessed as mitochondrial membrane potential at 20 uM after 40 to 60 mins by JC-1 staining based fluorescence assay (reference value: 100 +/- 1.6%). Details: scale not given: the % may be the effect or the level left. It is filed as cell-based.
In series [5] the test system is L6. Description: Inhibition of mitochondrial respiratory complex 1 in differentiated Sprague-Dawley rat L6 myotube cells assessed as mitochondrial membrane potential at 10 uM after 40 to 60 mins by JC-1 staining based fluorescence assay (reference value: 100 +/- 1.6%). The format is cell-based. Details: scale not given: the % may be the effect or the level left.
Series [6] is described as follows: Cytotoxicity against Sprague-Dawley rat L6 cells assessed as cell viability at 10 uM after 12 hrs by SRB assay (reference value: 100 +/- 1.8%). Conditions: read-out: Activity. It is filed as cell-based.
Series [7] is filed under the species Rattus norvegicus. As to the kind of experiment: Activation of AMPK in Sprague-Dawley rat primary hepatocytes assessed as inhibition of gluconeogenesis by measuring glucose production at 5 uM after 6 hrs by colorimetric assay (reference value: 100 +/- 3.5%). Details: scale not given: the % may be the effect or the level left.
The test system of series [8] is L6. As to the kind of experiment: Activation of AMPK in differentiated Sprague-Dawley rat L6 myotube cells assessed as glucose consumption at 10 uM after 12 hrs by colorimetric assay (reference value: 100 +/- 1.8%). The format is cell-based.
For series [9], the species on record is Rattus norvegicus. As to the kind of experiment: Activation of AMPK in Sprague-Dawley rat primary hepatocytes assessed as inhibition of gluconeogenesis by measuring glucose production at 10 uM after 6 hrs by colorimetric assay (reference value: 100 +/- 3.5%). Further details: scale not given: the % may be the effect or the level left.
Series [10] is filed under the species Rattus norvegicus. As to the kind of experiment: Activation of AMPK in Sprague-Dawley rat primary hepatocytes assessed as inhibition of gluconeogenesis by measuring glucose production after 6 hrs by colorimetric assay.
A short description of series [11]: Cytotoxicity against Sprague-Dawley rat L6 cells assessed as cell viability at 20 uM after 12 hrs by SRB assay (reference value: 100 +/- 1.8%). The format is cell-based. Particulars: read-out: Activity. On the technique in general: In SRB staining, fixed cells bind dye roughly in proportion to their protein.
In series [12] the test system is L6. As to the kind of experiment: Upregulation of AMPKalpha phosphorylation at Thr172 residues in Sprague-Dawley rat L6 myotube cells at 5 to 20 uM after 1 hr by Western blot analysis. The format is cell-based. On the technique in general: Immunoblotting shows a protein as a band on a membrane.
The nature of series [13]: Cytotoxicity against Sprague-Dawley rat L6 cells assessed as cell viability at 5 uM after 12 hrs by SRB assay (reference value: 100 +/- 1.8%). The format is cell-based. Particulars: read-out: Activity.
For series [14], the system named is L6. Description: Activation of AMPK in Sprague-Dawley rat L6 myotube cells assessed as increase in acetyl-CoA carboxylase phosphorylation at Ser79 residues at 5 to 20 uM after 1 hr by Western blot analysis. The format is cell-based.
Series [15] deals with L6. As to the kind of experiment: Activation of AMPK in differentiated Sprague-Dawley rat L6 myotube cells assessed as glucose consumption at 20 uM after 12 hrs by colorimetric assay (reference value: 100 +/- 1.8%). The format is cell-based.
Series [16] concerns L6. Description: Activation of AMPK in differentiated Sprague-Dawley rat L6 myotube cells assessed as increase in glucose consumption at 10 uM after 12 hrs by colorimetric assay relative to control. The format is cell-based.
The test system of series [17] is L6. As to the kind of experiment: Activation of AMPK in differentiated Sprague-Dawley rat L6 myotube cells assessed as increase in glucose consumption at 5 to 20 uM after 12 hrs by colorimetric assay relative to berberine. The format is cell-based.
The subject of series [18] is L6. Description: Activation of AMPK in differentiated Sprague-Dawley rat L6 myotube cells assessed as increase in glucose consumption at 5 to 20 uM after 12 hrs by colorimetric assay relative to control. It is filed as cell-based.
Series [19] deals with L6. Description: Upregulation of AMPKalpha phosphorylation at Thr172 residues in Sprague-Dawley rat L6 myotube cells at 10 uM after 1 hr by Western blot analysis. The format is cell-based.
In series [20] the test system is L6. Description: Activation of AMPK in Sprague-Dawley rat L6 myotube cells assessed as increase in acetyl-CoA carboxylase phosphorylation at Ser79 residues at 10 uM after 1 hr by Western blot analysis. It is filed as cell-based.

The source made the active and inactive calls. The calls are words filed in the database; no cut-off is given here.

For the molecule `c1ccc(Cc2cc3c(s2)CC2c4cc5c(cc4CCN2C3)OCO5)cc1` (stereo not given), the Activity with L6 [1] was found to be 98.2%; in the series listed under Rattus norvegicus [2], 40.9%; in the series with L6 [3], 194%; with L6 [4], 79.7%; with L6 [5], 90.7%; in the series filed under Rattus norvegicus [7], 59.5%. Moreover, the Activity came to 242% with L6 [8], 48.2% in the series listed under Rattus norvegicus [9] and 264% with L6 [15]. The viability at 12 h, 10 µM in series [6] is 101%. Besides, in the series listed under Rattus norvegicus [10], the inhibition entry was “Dose-dependent effect”. Besides, the viability at 12 h, 20 µM in series [11] was determined as 101%. The outcome with L6 [12] and in the series on L6 [14] was Active. The viability at 12 h, 5 µM in series [13] stood at 102%. Besides, in the series on L6 [16], the fold change (FC) was 2.4.
On to `CCCCc1cc2c(s1)CC1c3cc4c(cc3CCN1C2)OCO4` (stereo not given), for which the Activity is 75.1% in the series with L6 [1]; 53.7% in the series filed under Rattus norvegicus [2]; 265% in the series on L6 [3]; 57.5% with L6 [4]; 68.9% in the series with L6 [5]; 58.3% in the series filed under Rattus norvegicus [7]. Further, the Activity turned out to be 287% in the series on L6 [8], 55.6% in the series filed under Rattus norvegicus [9] and 285% in the series with L6 [15]. The viability at 12 h, 10 µM in series [6] stood at 98.8%. In addition, in the series listed under Rattus norvegicus [10], the inhibition entry was “Dose-dependent effect”. For the same molecule, in series [11], the viability at 12 h, 20 µM was found to be 97.7%. For the same molecule, the result in the series on L6 [12] and with L6 [14] was Active. Moreover, in series [13], the viability at 12 h, 5 µM amounted to 102%. In the series with L6 [16], the fold change (FC) is 2.9.
For the molecule `COc1cccc(Cc2cc3c(s2)CCN2Cc4c(OC)ccc(OC)c4CC32)c1` (stereo not given), the Activity with L6 [1] was 76.3%; in the series filed under Rattus norvegicus [2], 38.1%; with L6 [3], 245%; in the series on L6 [4], 59.2%; in the series on L6 [5] it was 72.8%; in the series filed under Rattus norvegicus [7] it was 73.2%. The Activity with L6 [8] amounted to 242%; in the series listed under Rattus norvegicus [9], 58.8%; in the series on L6 [15], 243%. In addition, the fold change (FC) was 2.3 in the series on L6 [17] and 2.1 to 2.7 in the series with L6 [18]. Besides, the viability at 12 h, 10 µM in series [6] came out at 94.9%. Also, the inhibition result in the series filed under Rattus norvegicus [10] was “Dose-dependent effect”. The viability at 12 h, 20 µM in series [11] was 100%. Also, the result with L6 [12] and in the series on L6 [14] was Active. The viability at 12 h, 5 µM in series [13] worked out at 100%.
In the case of `CCc1cc2c(s1)CC1c3cc4c(cc3CCN1C2)OCO4` (stereo not given), the Activity in the series with L6 [3] came to 212%; in the series with L6 [8], 219%; with L6 [15] it was 227%. Also, the viability at 12 h, 10 µM in series [6] came to 102%. For the same molecule, the viability at 12 h, 20 µM in [11] stood at 102%. Besides, in series [13], the viability at 12 h, 5 µM was determined as 99.5%. In addition, in the series on L6 [16], the fold change (FC) turned out to be 2.2.
In the case of `COc1ccc(OC)c2c1CC1c3cc(Cc4ccc(F)cc4)sc3CCN1C2` (stereo not given), the Activity is 82.8% with L6 [1]; 60.6% in the series listed under Rattus norvegicus [2]; 216% in the series on L6 [3]; 62.9% in the series on L6 [4]; 76% in the series with L6 [5]; 96.7% in the series listed under Rattus norvegicus [7]. Moreover, the Activity with L6 [8] came out at 238%; in the series filed under Rattus norvegicus [9], 83.4%; in the series with L6 [15], 235%. The fold change (FC) was 2.3 with L6 [17] and 2.3 to 2.9 with L6 [18]. Besides, the viability at 12 h, 10 µM in series [6] worked out at 98.2%. For the same molecule, in the series filed under Rattus norvegicus [10], the inhibition result is “Dose-dependent effect”. For the same molecule, in series [11], the viability at 12 h, 20 µM worked out at 100%. The result with L6 [12] and in the series with L6 [14] was Active. Besides, the viability at 12 h, 5 µM in series [13] was determined as 98.8%.
Take `C=CCOc1ccc(Cc2cc3c(s2)CCN2Cc4c(OC)ccc(OC)c4CC32)cc1` (stereo not given): the Activity stood at 83.7% in the series on L6 [1]; 49% in the series filed under Rattus norvegicus [2]; 213% in the series with L6 [3]; 54% in the series on L6 [4]; 72.8% in the series on L6 [5]; 58.7% in the series listed under Rattus norvegicus [7]. In addition, the Activity was determined as 249% in the series with L6 [8], 49.6% in the series listed under Rattus norvegicus [9] and 265% in the series with L6 [15]. The values for the fold change (FC) in the series with L6 [17] and in the series with L6 [18] were 2.3 and 2.1 to 2.7, respectively. The viability at 12 h, 10 µM in [6] was found to be 102%. In addition, the inhibition result in the series listed under Rattus norvegicus [10] was “Dose-dependent effect”. For the same molecule, the viability at 12 h, 20 µM in series [11] was determined as 98.7%. Besides, the outcome in the series with L6 [12] and in the series with L6 [14] was Active. In addition, in series [13], the viability at 12 h, 5 µM is 99.4%.
Regarding `COc1ccc2cc3[n+](cc2c1OC)CCc1cc2c(cc1-3)OCO2` [BERBERINE CHLORIDE], the Activity with L6 [1] came to 91.5%; in the series on L6 [4] it was 84.5%; with L6 [5] it was 85.8%; in the series listed under Rattus norvegicus [7] it was 57.6%; in the series with L6 [8], 228%. Also, the outcome in the series on L6 [19] and in the series with L6 [20] was Active. Besides, the viability at 12 h, 10 µM in series [6] amounted to 100%.
As for `c1cc2c(s1)CC1c3cc4c(cc3CCN1C2)OCO4` (stereo not given), the Activity with L6 [3] amounted to 132%; with L6 [8] it was 134%; in the series with L6 [15] it was 133%. Further, the viability at 12 h, 10 µM in series [6] is 99.7%. Further, in series [11], the viability at 12 h, 20 µM is 102%. Also, in [13], the viability at 12 h, 5 µM amounted to 98.6%. In addition, the fold change (FC) in the series on L6 [16] is 1.3.

Values taken from ChEMBL document CHEMBL4219147, “Design, synthesis, and structure-activity relationships of novel 4,7,12,12a-tetrahydro-5H-thieno[3',2':3,4]pyrido[1,2-b]isoquinoline and 5,8,12,12a-tetrahydro-6H-thieno[2',3':4,5]pyrido[2,1-a]isoquinoline derivatives as cellular activators of adenosine 5'-monophosphate-activated protein kinase …” (Bioorg Med Chem, 2018).
